# Assay results taken from patent US20040146538A1, “Pharmaceutical composition for oral use comprising an active principle liable to undergo a large first intestinal passage effect” (Gattefosse Holding, priority 2001, published 2004).
# Tested on: human intestinal microsomes
# Assay: Stability of simvastatin in human intestinal microsomes (first intestinal passage effect)
# Settings: 1 mg/ml microsomes, 37° C., 12 μmol
# Method: The test is carried out in vitro using human intestinal microsomes containing:
# 0.09 nmol/mg of cytochromes P450,
# 0.77 nmol/min/mg of cytochromes P450 3 A 4.
# 1 mg/ml of microsomes is then placed in contact:
# with a regenerating system having the following composition:
# followed by equilibration at 37° C. for 3 minutes.
# 100 μl aliquots are mixed with a solution of 400 μl of a 50/50 mixture of ice and acetonitrile at 0, 15, 30, 60, 120 and 180 minutes. Testosterone is tested in parallel as control component.
# The conditions for carrying out the HPLC are as follows:
# The mass spectrometer used is known under the reference PE SCIEX 150.
structure (smiles),measurement,setting,value
"C[C@]12CC[C@H]3[C@@H](CCC4=CC(=O)CC[C@@]43C)[C@@H]1CC[C@@H]2O [TESTOSTERONE, Testosterone]",Percentage remaining,"simvastatin (or testosterone control) remaining, time 0 min",100%
same,Percentage remaining,time 15 min,completely disappeared
same,Percentage remaining,time 180 min,0%
